Results on twelve molecules are retold here after patent publication US10035805B2, “Tricyclic triazolic compounds” (LABORATORIOS DEL DR. ESTEVE S.A., priority 2014, dated 2018).

Structures can show the parent of a compound that is named as a salt. A value given as a limit tells only on which side of the number the result lay.

This assay deals with T1, sigma-1 receptor (Cavia porcellus, UniProt Q60492).
T1 construct: Guinea pig brains were homogenized in 10 vols; (w/v) of Tris-HCl 50 mM 0.32 M sucrose; from tissue; host or cells: guinea pig brain membranes
T1 sequence (Q60492 whole entry): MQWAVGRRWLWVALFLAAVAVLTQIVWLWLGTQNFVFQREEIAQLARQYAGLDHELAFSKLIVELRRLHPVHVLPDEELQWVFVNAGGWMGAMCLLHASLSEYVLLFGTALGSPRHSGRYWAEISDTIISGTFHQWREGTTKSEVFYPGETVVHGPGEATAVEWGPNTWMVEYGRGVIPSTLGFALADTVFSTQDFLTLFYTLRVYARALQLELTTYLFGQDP
Briefly: Sigma-1 receptor radioligand binding assay with [3H]-(+)-pentazocine in guinea pig brain membranes. The conditions noted are these: radioligand [3H]-(+)-pentazocine at 5.0 nM, 150 min at 37° C., nonspecific binding with 1 μM haloperidol. On the procedure:
Brain membrane preparation and binding assays for the al-receptor were performed as described (DeHaven-Hudkins, D. L., L. C. Fleissner, and F. Y. Ford-Rice, 1992, Characterization of the binding of [^3H](+)pentazocine to a recognition sites in guinea pig brain, Eur. J. Pharmacol. 227, 371-378) with some modifications. Guinea pig brains were homogenized in 10 vols. (w/v) of Tris-HCl 50 mM 0.32 M sucrose, pH 7.4, with a Kinematica Polytron PT 3000 at 15000 r.p.m. for 30 s. The homogenate was centrifuged at 1000 g for 10 min at 4° C. and the supernatants collected and centrifuged again at 48000 g for 15 min at 4° C. The pellet was resuspended in 10 volumes of Tris-HCl buffer (50 mM, pH 7.4), incubated at 37° C. for 30 min, and centrifuged at 48000 g for 20 min at 4° C. Following this, the pellet was resuspended in fresh Tris-HCl buffer (50 mM, pH 7.4) and stored on ice until use.
The radioligand used was [^3H]-(+)-pentazocine at 5.0 nM and the final volume was 200 μl. The incubation was initiated with the addition of 100 μl of membrane at a final tissue concentration of approximately 5 mg tissue net weight/mL and the incubation time was 150 m. at 37° C. After incubation, the membranes were collected onto pretreated glass fiber filterplate (MultiScreen-FC, Millipore), with polyethylenimine 0.1%. The filters were washed two times with 200 μl of washing buffer (50 mM Tris Cl, pH=7.4) and then 25 μl of Ecoscint H liquid scintillation cocktail were added. Microplates were allowed to set for several hours and then quantified by liquid scintillation spectrophotometry (1450 Microbeta, Wallac). Nonspecific binding was determined with 1 μM haloperidol.
The Ki is the dissociation constant of the complex between target and ligand, obtained from inhibition or displacement. Low readings indicate a stronger hold on the target, high ones a looser hold on the target. Turning to `CC(C)(C)OC(=O)N1Cc2c(-c3ccccc3)nnn2[C@@H]2CNC[C@H]21` (racemic) [Example 6, (rac)-(5a,8a-trans)-tert-butyl-3-phenyl-6,7,8,8a-tetrahydro-4H-pyrrolo[3,4-e][1,2,3]triazolo[1,5-a]pyrazine-5(5aH)-carboxylate], the inhibitory constant (Ki) is > 500 nM.
Under `FC(F)(F)c1ccc(CN2C[C@@H]3[C@@H](C2)NCc2c(-c4ccccc4)nnn23)cc1` [Example 26, (5aR,8aR)-3-phenyl-7-(4-(trifluoromethyl)benzyl)-5,5a,6,7,8,8a-hexahydro-4H-pyrrolo[3,4-e][1,2,3]triazolo[1,5-a]pyrazine hydrochloride] stands 100 to 500 nM.
Under `Fc1ccccc1-c1nnn2c1CN[C@@H]1CN(Cc3ccccc3)C[C@H]12` (racemic) [Example 28, (rac) (5a,8a-trans)-7-benzyl-3-(2-fluorophenyl)-5,5a,6,7,8,8a-hexahydro-4H-pyrrolo[3,4-e][1,2,3]triazolo[1,5-a]pyrazine hydrochloride] stands < 100 nM.
The value for `Fc1ccccc1-c1nnn2c1CN[C@@H]1CN(Cc3ccccc3)C[C@H]12` [Example 29, (5aR,8aR)-7-benzyl-3-(2-fluorophenyl)-5,5a,6,7,8,8a-hexahydro-4H-pyrrolo[3,4-e][1,2,3]triazolo[1,5-a]pyrazine hydrochloride] was < 100 nM.
Regarding `CC(C)(C)OC(=O)N1Cc2c(-c3ccccc3)nnn2[C@@H]2CN(Cc3ccc(F)cc3)C[C@H]21` (racemic) [Example 7, (rac)-(5a,8a-trans)-tert-butyl-7-(4-fluorobenzyl)-3-phenyl-6,7,8,8a-tetrahydro-4H-pyrrolo[3,4-e][1,2,3]triazolo[1,5-a]pyrazine-5(5aH)-carboxylate], the Ki was > 500 nM.
Under `CCCCCN1C[C@@H]2NCc3c(-c4ccccc4)nnn3[C@@H]2C1` (racemic) [Example 14, (rac) (5a,8a-cis)-7-pentyl-3-phenyl-5,5a,6,7,8,8a-hexahydro-4H-pyrrolo[3,4-e][1,2,3]triazolo[1,5-a]pyrazine] stands < 100 nM; under `CCC(=O)N1Cc2c(-c3ccccc3)nnn2[C@@H]2CN(Cc3ccccc3)C[C@H]21` (racemic) [Example 17, (rac) 1-((5a,8a-trans)-7-benzyl-3-phenyl-6,7,8,8a-tetrahydro-4H-pyrrolo[3,4-e][1,2,3]triazolo[1,5-a]pyrazin-5(5aH)-yl)propan-1-one hydrochloride], 100 to 500 nM.
As for `c1ccc(CN2C[C@@H]3[C@@H](C2)NCc2c(-c4ccccc4)nnn23)cc1` (racemic) [Example 1, (rac) (5a,8a-trans)-7-benzyl-3-phenyl-5,5a,6,7,8,8a-hexahydro-4H-pyrrolo[3,4-e][1,2,3]triazolo[1,5-a]pyrazine, hydrochloride], the inhibitory constant (Ki) is < 100 nM.
Under `c1ccc(CN2C[C@@H]3NCc4c(-c5ccccc5)nnn4[C@@H]3C2)cc1` (racemic) [Example 3, (rac) (5a,8a-cis)-7-benzyl-3-phenyl-5,5a,6,7,8,8a-hexahydro-4H-pyrrolo[3,4-e][1,2,3]triazolo[1,5-a]pyrazine] stands 100 to 500 nM; under `CN1Cc2c(-c3ccccc3)nnn2[C@@H]2CN(Cc3ccccc3)C[C@H]21` (racemic) [Example 16, (rac) (5a,8a-trans)-7-benzyl-5-methyl-3-phenyl-5,5a,6,7,8,8a-hexahydro-4H-pyrrolo[3,4-e][1,2,3]triazolo[1,5-a]pyrazine hydrochloride], < 100 nM.
In the case of `c1ccc(CN2C[C@@H]3NCCc4c(-c5ccccc5)nnn4[C@@H]3C2)cc1` (racemic) [Example 30, (rac) (6a,9a-cis)-8-benzyl-3-phenyl-4,5,6,6a,7,8,9,9a-octahydropyrrolo[3,4-b][1,2,3]triazolo[1,5-d][1,4]diazepine hydrochloride], the Ki was < 100 nM.
Under `CCCN1Cc2c(-c3ccccc3)nnn2[C@@H]2CN(Cc3ccccc3)C[C@@H]21` (racemic) [Example 13, (rac) (5a,8a-cis)-7-benzyl-3-phenyl-5-propyl-5,5a,6,7,8,8a-hexahydro-4H-pyrrolo[3,4-e][1,2,3]triazolo[1,5-a]pyrazine] stands 100 to 500 nM.
